# From ChEMBL document CHEMBL1201862, “PubChem BioAssay data set” (2004)
#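 All cell lines were grown in 96-well plates and treated with compound for 48 hours. GI50 marks 50% less growth.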 The source made the active and inactive calls. Rule as the data show it: active = GI50 up to about 1.1 µM and inactive = higher.
# Legend:
# Assay in all cases: growth of human tumour cells (NCI), 48 h
# [1] = system: MCF7
# [2] = system: MOLT-4
# [3] = system: MDA-N
# [4] = system: OVCAR-3
# [5] = system: 786-0
# [6] = system: SN12C
# [7] = system: RPMI-8226
# [8] = system: HCT-116
# [9] = system: K562
# [10] = system: PC-3
# [11] = system: NCI-H226
# [12] = system: SF-295
# [13] = system: CCRF-CEM
# [14] = system: SF-539
# [15] = system: HL-60
# [16] = system: ACHN
# [17] = system: SK-MEL-2
# [18] = system: UO-31
# [19] = system: T47D
Structure (SMILES),GI50 [1],GI50 [2],GI50 [3],GI50 [4],GI50 [5],GI50 [6],GI50 [7],GI50 [8],GI50 [9],GI50 [10],GI50 [11],GI50 [12],GI50 [13],GI50 [14],GI50 [15],GI50 [16],GI50 [17],GI50 [18],GI50 [19]
O=C1C(C(O)(C(F)(F)F)C(F)(F)F)CCC1C(O)(C(F)(F)F)C(F)(F)F (configuration not stated),0.174 µM (active),0.341 µM (active),> 36.7 µM (inactive),0.918 µM (active),3.87 µM (inactive),0.684 µM (active),0.142 µM (active),0.556 µM (active),3.64 µM (inactive),0.176 µM (active),0.33 µM (active),0.849 µM (active),1.15 µM (inactive),6.82 µM (inactive),1.16 µM (inactive),1.8 µM (inactive),0.522 µM (active),1.09 µM (active),
CN(C)c1ccc([S+]([O-])Nc2ccccc2)cc1 (configuration not stated),29.4 µM (inactive),53.8 µM (inactive),,> 100 µM (inactive),35.4 µM (inactive),> 100 µM (inactive),27.5 µM (inactive),26.6 µM (inactive),28.1 µM (inactive),,38.4 µM (inactive),48.8 µM (inactive),> 100 µM (inactive),> 100 µM (inactive),28.1 µM (inactive),29.6 µM (inactive),35.8 µM (inactive),11.1 µM (inactive),19.1 µM (inactive)
COc1ccc([C@@]23OC[C@@H]4[C@@H](OC[C@@H]42)c2cc(OC)c(OC)cc23)cc1OC,> 100 µM (inactive),> 100 µM (inactive),,> 100 µM (inactive),> 100 µM (inactive),,> 100 µM (inactive),> 100 µM (inactive),> 100 µM (inactive),> 100 µM (inactive),> 100 µM (inactive),> 100 µM (inactive),,> 100 µM (inactive),> 100 µM (inactive),> 100 µM (inactive),> 100 µM (inactive),> 100 µM (inactive),> 100 µM (inactive)
COc1ccc(-c2c(C#N)c(N)nc(S)c2C#N)cc1,39.2 µM (inactive),17.1 µM (inactive),11.5 µM (inactive),64.7 µM (inactive),21.1 µM (inactive),29.1 µM (inactive),21.5 µM (inactive),29.4 µM (inactive),26.5 µM (inactive),27.5 µM (inactive),21.1 µM (inactive),27.6 µM (inactive),,38.9 µM (inactive),23.1 µM (inactive),71 µM (inactive),36.1 µM (inactive),34.9 µM (inactive),
O=CC1C(Cl)=Nc2nc3ccccc3n2C1c1ccccc1 (configuration not stated),20.4 µM (inactive),,,23.2 µM (inactive),15.6 µM (inactive),20.7 µM (inactive),14 µM (inactive),22.1 µM (inactive),15.2 µM (inactive),17.3 µM (inactive),20.2 µM (inactive),> 100 µM (inactive),12.4 µM (inactive),18.1 µM (inactive),20 µM (inactive),17.4 µM (inactive),12 µM (inactive),14.7 µM (inactive),17.1 µM (inactive)
Cn1c(=O)c2c(nc3n2CCC(=O)N3CCCCl)n(C)c1=O,,> 100 µM (inactive),> 100 µM (inactive),> 100 µM (inactive),> 100 µM (inactive),> 100 µM (inactive),> 100 µM (inactive),> 100 µM (inactive),> 100 µM (inactive),> 100 µM (inactive),> 100 µM (inactive),> 100 µM (inactive),> 100 µM (inactive),,> 100 µM (inactive),> 100 µM (inactive),> 100 µM (inactive),> 100 µM (inactive),> 100 µM (inactive)
CC12CCCC(O)C1CCC1=CC3(CCC12)SCCS3 (configuration not stated),> 10 µM (inactive),,> 10 µM (inactive),> 10 µM (inactive),> 10 µM (inactive),> 10 µM (inactive),> 10 µM (inactive),,> 10 µM (inactive),> 10 µM (inactive),,> 10 µM (inactive),5.83 µM (inactive),,,> 10 µM (inactive),,,> 10 µM (inactive)
C#CCN(N=O)C(=O)NCCCCC(NC(=O)OCc1ccccc1)C(=O)OCc1ccccc1 (configuration not stated),,20.7 µM (inactive),,25.5 µM (inactive),> 100 µM (inactive),37.8 µM (inactive),31.9 µM (inactive),32.7 µM (inactive),23.3 µM (inactive),,> 100 µM (inactive),> 100 µM (inactive),19.3 µM (inactive),16.3 µM (inactive),29.9 µM (inactive),61.5 µM (inactive),40 µM (inactive),> 100 µM (inactive),
C/C=C1/CC(C(=O)OC)N(C(=O)OCc2ccccc2)C1=S (configuration not stated),> 100 µM (inactive),> 100 µM (inactive),> 100 µM (inactive),> 100 µM (inactive),> 100 µM (inactive),,> 100 µM (inactive),> 100 µM (inactive),> 100 µM (inactive),> 100 µM (inactive),,> 100 µM (inactive),,,,> 100 µM (inactive),> 100 µM (inactive),> 100 µM (inactive),
CCN(CC)CCNC(=O)c1cc2cc(NC(=O)c3cc4cc(N)ccc4[nH]3)ccc2[nH]1,15.1 µM (inactive),13.2 µM (inactive),33.9 µM (inactive),,35.8 µM (inactive),39 µM (inactive),19.3 µM (inactive),16 µM (inactive),18.6 µM (inactive),,,> 100 µM (inactive),9.53 µM (inactive),31.1 µM (inactive),,> 100 µM (inactive),29.1 µM (inactive),> 100 µM (inactive),20.3 µM (inactive)
N#CC(=N)c1ncn(CCO)c1NC(=O)C(F)(F)F,,,> 100 µM (inactive),> 100 µM (inactive),> 100 µM (inactive),> 100 µM (inactive),> 100 µM (inactive),> 100 µM (inactive),> 100 µM (inactive),> 100 µM (inactive),> 100 µM (inactive),> 100 µM (inactive),> 100 µM (inactive),> 100 µM (inactive),> 100 µM (inactive),> 100 µM (inactive),> 100 µM (inactive),,> 100 µM (inactive)
CN(C)CCCSc1nc2ccccc2[nH]1,> 100 µM (inactive),,> 100 µM (inactive),> 100 µM (inactive),> 100 µM (inactive),> 100 µM (inactive),> 100 µM (inactive),> 100 µM (inactive),> 100 µM (inactive),,> 100 µM (inactive),> 100 µM (inactive),,,,> 100 µM (inactive),> 100 µM (inactive),> 100 µM (inactive),> 100 µM (inactive)
O=C(CN1CCOCC1)c1ccc2c(c1)oc(=O)n2CCN1CCCC1,> 100 µM (inactive),> 100 µM (inactive),> 100 µM (inactive),> 100 µM (inactive),> 100 µM (inactive),> 100 µM (inactive),> 100 µM (inactive),> 100 µM (inactive),> 100 µM (inactive),> 100 µM (inactive),> 100 µM (inactive),> 100 µM (inactive),> 100 µM (inactive),> 100 µM (inactive),> 100 µM (inactive),> 100 µM (inactive),> 100 µM (inactive),,
O=c1[nH]c(=O)n(COCc2ccccc2)c2ccc(Br)cc12,> 100 µM (inactive),> 100 µM (inactive),> 100 µM (inactive),85.3 µM (inactive),> 100 µM (inactive),> 100 µM (inactive),,> 100 µM (inactive),> 100 µM (inactive),,36.3 µM (inactive),87.7 µM (inactive),> 100 µM (inactive),> 100 µM (inactive),> 100 µM (inactive),27.5 µM (inactive),> 100 µM (inactive),> 100 µM (inactive),
CC(=O)O[C@H]1C[C@]2(O)[C@@H]3CC[C@@H]4C[C@@H](O)CC[C@]4(C)[C@H]3CC[C@]2(C)[C@H]1C1=CC(=O)OC1,,0.0201 µM (active),0.0867 µM (active),0.0389 µM (active),0.0455 µM (active),0.037 µM (active),0.0982 µM (active),0.033 µM (active),0.103 µM (active),0.0662 µM (active),0.288 µM (active),0.0391 µM (active),0.0375 µM (active),0.0299 µM (active),0.0382 µM (active),0.031 µM (active),0.218 µM (active),0.0632 µM (active),0.222 µM (active)
O=C1c2ccccc2/C=C\C(c2ccccc2)=N/N1c1ccccc1Cl,21.5 µM (inactive),15.3 µM (inactive),3.44 µM (inactive),27.5 µM (inactive),29.2 µM (inactive),23 µM (inactive),23.7 µM (inactive),28.1 µM (inactive),5.26 µM (inactive),6.73 µM (inactive),46.8 µM (inactive),26.1 µM (inactive),34.5 µM (inactive),35.7 µM (inactive),12.7 µM (inactive),26.4 µM (inactive),60 µM (inactive),32.5 µM (inactive),
CCOC(=O)N/N=C(\Cc1ccc([N+](=O)[O-])cc1)OCC,> 100 µM (inactive),> 100 µM (inactive),> 100 µM (inactive),> 100 µM (inactive),> 100 µM (inactive),> 100 µM (inactive),> 100 µM (inactive),> 100 µM (inactive),> 100 µM (inactive),> 100 µM (inactive),,> 100 µM (inactive),> 100 µM (inactive),> 100 µM (inactive),,> 100 µM (inactive),> 100 µM (inactive),> 100 µM (inactive),
